Article PMC3960879 (Biology, 2013)
Where two headings read alike, the source gives them in different places.

Columns and labels:
[1] = biological target: T1, F17aG receptor-binding domain (Escherichia coli, UniProt Q99003); assay: biochemical; conditions: F17aG, SPR steady state, 25 °C, pH 7.4
T1 construct: variants of the lectin domains with oligolysine (4Lys) tails have been constructed; made in house; host or cells: E. coli (periplasm)
Procedure: (§1) The affinity profiles were determined by surface plasmon resonance (SPR) measurements using a BiaCore 3000 instrument (GE Healthcare). […] The proteins were covalently immobilized on CM5 sensor chips (Biacore AB) to an average density of 2000 RU (resonance units in pg/mm^2). On each chip, one flow cell was coated with a camel single domain antibody for use as a reference cell. The other three flow cells (Fc2, Fc3 and Fc4) were coated with three different F17G variants. Carbohydrate concentrations ranging from 10 µM to 10 mM in running buffer (20 mM Hepes, pH 7.4; 150 mM NaCl; 3 mM EDTA and 0.005% surfactant Tween 20) were incubated for one minute on all flow cells simultaneously, at 25 °C and at a flow rate of 30 µL/min. Complete dissociation of the carbohydrates in running buffer was verified before starting a new binding cycle. All binding cycles were performed in duplicate, including a zero concentration cycle (injection of pure running buffer). All analysis was done using the BIAeval software. In each case the equilibrium resonance signal from the reference cell was subtracted from that of the various F17G flow cells (2-1, 3-1, 4-1). A Langmuir binding isotherm with a 1:1 stoichiometry was fitted to the data, from which the equilibrium dissociation constants, Kd, were obtained.

[2] = biological target: F17fG receptor-binding domain (Escherichia coli, UniProt Q9RH91); assay: Surface plasmon resonance steady-state affinity, immobilized F17fG
Procedure: as §1

F17aG lectin domain = F17aG lectin domain (Escherichia coli, UniProt Q99003); conditions: CFG glycan array version 2; F17G at 200 µg/mL; SEM in parentheses
Procedure: (§2) A microarray presenting 264 different glycans (mammalian printed array version 2) was used to evaluate if the F17G variant lectin domains differ in the range of glycan receptors that they recognize, thereby establishing tropism. The microarray was set up within the Consortium for Functional Glycomics (CFG) ([20], and supplemental data). Binding of F17G (200 µg/mL) was detected using anti-F17G polyclonal rabbit IgG (10 µg/mL), followed by fluorescently labelled goat anti-rabbit polyclonal antibodies (IgG-488, 5 µg/mL).
(§3) A microarray presenting 264 different glycans (mammalian printed array version 2 from the CFG, experiment 400) was used to evaluate whether the F17G variant lectin domains differ in the range of glycan receptors that they can recognize, thereby establishing strain-dependent tropism. […] The glycan array screening has been repeated for F17aG only on printed array version 4.1 (experiment 2053) (Figure 1).
(§4) Printed array version 2 at the Consortium for Functional Glycomics was used for glycan array screening of the variant F17G receptor binding domains. Slides were printed, with six replicates for each glycan, using glycan spotting concentrations of 100 μM, at the Consortium Carbohydrate Synthesis/Protein Expression Core D located at the Scripps Research Institute onto Schott Nexterion H slides (Schott Cat. No. 1070936B). Slide conditioning: preprinted slides were soaked in deionized water for 5 minutes at room temperature and dried under a stream of nitrogen. TSM buffer (20 mM Tris-HCl, pH 7.4, or MOPS 20 mM; 150 mM NaCl; 2 mM CaCl2, 2 mM MgCl2) was used as wash buffer (TSM buffer + 0.05% Tween 20) or binding buffer (TSM buffer + 0.05% Tween 20 + 1% BSA). (1) F17G was diluted to 200 μg/mL (Figure 1) in TSM binding buffer. (2) 50 μL of F17G was applied to the printed surface and coverslipped. (3) The slide was incubated, protected from light, in a humidified chamber for 1 hour at RT. (4) The slide was washed once in TSM wash buffer. 50 μL of the anti-F17G (10 μg/mL) polyclonal rabbit IgG were applied, coverslipped and incubated for 1 h at RT. (5) The slide was washed once in TSM wash buffer. Fifty μL of fluorescently labelled secondary goat anti-rabbit polyclonal antibodies (IgG-488, 5 µg/mL) were applied, coverslipped and incubated for 1 h at RT. (6) Slide was removed, followed by the coverslip, and washed for 10 s each in TSM wash buffer, TSM wash buffer lacking Tween 20, and deionized water. The slide was dried under a stream of nitrogen. (7) The binding image was read in a Perkin Elmer Microscanarray XL4000 scanner and tiff file of image stored. (8) Image analysis was performed using Imagene (V.6) image analysis software. (9) Raw data results files were generated in Excel format and uploaded to the Consortium database as .dat files. (10) Imagene data was uploaded to the database as .txt files.

F17bG lectin domain = F17bG lectin domain (Escherichia coli, UniProt Q47200); conditions: CFG glycan array version 2; F17G at 200 µg/mL; SEM in parentheses
Procedure: as §2, §3, §4

F17dG lectin domain = F17dG lectin domain (Escherichia coli, UniProt Q47199); conditions: CFG glycan array version 2; F17G at 200 µg/mL; SEM in parentheses
Procedure: as §2, §3, §4

F17eG lectin domain = assay: CFG mammalian printed glycan array version 2 (experiment 400), F17eG; assay type: binding, Escherichia coli; conditions: CFG glycan array version 2; F17G at 200 µg/mL; SEM in parentheses
Description: (§5) The slide was dried under a stream of nitrogen.

F17fG lectin domain = assay: CFG mammalian printed glycan array version 2 (experiment 400), F17fG; assay type: binding, Escherichia coli; conditions: CFG glycan array version 2; F17G at 200 µg/mL; SEM in parentheses
Description: as §5

[3] = SPR steady state, 25 °C, pH 7.4, read-out: Affinity range (Kd class), F17fG

Sequence of F17fG receptor-binding domain (Q9RH91 23-198): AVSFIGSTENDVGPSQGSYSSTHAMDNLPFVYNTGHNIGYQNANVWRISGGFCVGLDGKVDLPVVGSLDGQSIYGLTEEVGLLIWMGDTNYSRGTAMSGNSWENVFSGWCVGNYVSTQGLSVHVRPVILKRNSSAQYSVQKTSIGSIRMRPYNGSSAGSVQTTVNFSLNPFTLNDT
Sequence of F17bG lectin domain (Q47200 23-199): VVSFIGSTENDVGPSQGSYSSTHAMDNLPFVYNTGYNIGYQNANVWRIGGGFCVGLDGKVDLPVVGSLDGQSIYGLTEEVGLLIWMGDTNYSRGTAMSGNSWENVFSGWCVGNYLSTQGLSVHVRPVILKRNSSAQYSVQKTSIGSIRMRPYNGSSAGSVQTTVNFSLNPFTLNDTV
Sequence of F17aG lectin domain (Q99003 23-199): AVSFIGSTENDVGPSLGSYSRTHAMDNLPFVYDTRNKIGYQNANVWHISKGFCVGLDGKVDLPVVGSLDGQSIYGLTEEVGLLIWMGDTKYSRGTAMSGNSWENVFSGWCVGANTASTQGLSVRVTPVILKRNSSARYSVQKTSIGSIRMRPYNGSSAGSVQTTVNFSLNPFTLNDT
Sequence of F17dG lectin domain (Q47199 23-199): as the sequence (Q99003 23-199) above, with L16P, D33N, R35G, K37N, H47R, K90N counted along it
T1 sequence (Q99003 23-199): as the sequence (Q99003 23-199) above

| Compound | Kd ([1]; Affinity range (Kd class)) [mM] | Kd ([1]; dissociation constant Kd, good fit for at least three related experiments) [mM] | Kd [2] [mM] | Relative Fluorescence Units (RFU), averaged over six replicates, F17aG (F17aG lectin domain) | Relative Fluorescence Units (RFU), averaged over six replicates, F17bG (F17bG lectin domain) | Relative Fluorescence Units (RFU), averaged over six replicates, F17dG (F17dG lectin domain) | Relative Fluorescence Units (RFU), averaged over six replicates, F17eG (F17eG lectin domain) | Relative Fluorescence Units (RFU), averaged over six replicates, F17fG (F17fG lectin domain) | Kd [2, 3] [mM] |
| --- | --- | --- | --- | --- | --- | --- | --- | --- | --- |
| CC(=O)N[C@@H]1[C@@H](O)[C@H](O)[C@@H](CO)O[C@H]1O [GlcNAc, N-acetylglucosamine] | 1 to 10 | 1.2 | 1 to 10 | – | – | – | – | – | – |
| NCCCO[C@@H]1O[C@H](CO)[C@@H](O)[C@H](O)[C@H]1N [GlcNH2β-Sp8] | – | – | – | 554 (117) RFU | 7,281 (1,506) RFU | 1,950 (1,358) RFU | 548 (256) RFU | 1,385 (464) RFU | – |
| (GlcNAcβ1,3(GlcNAcβ1,6)GlcNAcβ1,4)GlcNAc-Sp8 | – | – | – | 20,305 (2,023) RFU | 6,148 (1,367) RFU | 8,080 (1,518) RFU | 50,775 (6,375) RFU | 2,992 (992) RFU | – |
| GM1 ganglioside | – | – | – | – | – | – | – | – | > 100 |
| Galβ1,4GlcNAcβ1,3Galβ1,4Glcβ-Sp0 | – | – | – | 391 (24) RFU | 1,090 (262) RFU | 919 (375) RFU | 3,942 (857) RFU | 663 (146) RFU | – |
| Galβ1,4GlcNAcβ-Sp0 | – | – | – | 1,703 (1,070) RFU | 1,974 (289) RFU | 249 (94) RFU | 19,659 (4,594) RFU | 1,279 (106) RFU | – |
| GlcNAcβ1,2Galβ1,3GalNAcα-Sp8 | – | – | – | 5,082 (4,924) RFU | 1,016 (239) RFU | 75 (35) RFU | 305 (148) RFU | 563 (125) RFU | – |
| GlcNAcβ1,3Galβ1,3GalNAcα-Sp8 | – | – | – | 7,713 (866) RFU | 10,655 (880) RFU | 3,999 (1,481) RFU | 47,984 (3,178) RFU | 31,661 (2,807) RFU | – |
| GlcNAcβ1,3Galβ1,4GlcNAcβ1,3Galβ1,4GlcNAcβ-Sp0 | – | – | – | 10,917 (811) RFU | 7,563 (2,744) RFU | 3,599 (772) RFU | 43,425 (4,065) RFU | 4,334 (856) RFU | – |
| GlcNAcβ1,3Galβ1,4Glcβ-Sp0 | – | – | – | 57,013 (5,191) RFU | 13,149 (2,286) RFU | 29,181 (3,281) RFU | 54,005 (5,715) RFU | 26,336 (7,255) RFU | – |
| GlcNAcβ1,4(GlcNAcβ1,6)GalNAcα-Sp8 | – | – | – | 4,520 (2,808) RFU | 12,960 (1,692) RFU | 1,680 (92) RFU | 38,200 (2,394) RFU | 19,830 (4,279) RFU | – |
| GlcNAcβ1,4Galβ1,4GlcNAcβ-Sp8 | – | – | – | 12,499 (1,921) RFU | 13,001 (2,039) RFU | 1,056 (190) RFU | 39,794 (6,245) RFU | 7,176 (2,338) RFU | – |
| GlcNAcβ1,6GalNAcα-Sp8 | – | – | – | 11,120 (1,871) RFU | 6,683 (947) RFU | 2,432 (406) RFU | 43,848 (4,140) RFU | 26,522 (11,365) RFU | – |
| GlcNAcβ1,6Galβ1,4GlcNAcβ-Sp8 | – | – | – | 9,029 (1,096) RFU | 5,372 (746) RFU | 5,119 (1,633) RFU | 40,973 (6,555) RFU | 2,269 (561) RFU | – |
| GlcNAcβ1-3Galβ1,4GlcNAcβ-Sp8 | – | – | – | 51,880 (5,023) RFU | 15,483 (1,729) RFU | 17,991 (4,401) RFU | 49,223 (5,377) RFU | 28,888 (6,925) RFU | – |
| Neu5Acα2,3(Neu5Acα2,6)GalNAcα-Sp8 | – | – | – | 4,527 (4,043) RFU | 4,331 (1,760) RFU | 1,388 (1,162) RFU | 1,229 (1,162) RFU | 1,717 (229) RFU | – |
| Neu5Acα2,3Galβ1,3(Neu5Acα2,6)GlcNAcβ1,3Gal β1,4Glc | – | – | – | – | – | – | – | – | > 100 |
